The structures appear in SMILES notation.

T1 sequence (Q9GZT9 whole entry, species assumed): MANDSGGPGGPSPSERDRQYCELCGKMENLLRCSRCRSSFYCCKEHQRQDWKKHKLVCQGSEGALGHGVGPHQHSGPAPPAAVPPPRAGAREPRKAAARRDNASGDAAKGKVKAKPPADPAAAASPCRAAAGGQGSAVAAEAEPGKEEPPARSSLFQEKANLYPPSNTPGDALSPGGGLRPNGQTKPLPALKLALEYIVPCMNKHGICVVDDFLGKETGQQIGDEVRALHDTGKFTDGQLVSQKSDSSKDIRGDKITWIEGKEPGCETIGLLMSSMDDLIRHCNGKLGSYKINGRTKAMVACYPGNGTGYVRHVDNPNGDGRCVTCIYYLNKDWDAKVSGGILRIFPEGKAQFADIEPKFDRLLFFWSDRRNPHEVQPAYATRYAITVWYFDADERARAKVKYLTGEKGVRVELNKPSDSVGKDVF

The first experiment concerns the target T1, HIF-PH2 (Homo sapiens, UniProt Q9GZT9).
T1 construct: made in house; host or cells: insect Hi5 cells
Nature of the experiment: HIF-PH assay (14CO2 capture, peptide-dependent turnover). The class given is biochemical. Particulars: compound concentration 22.22 μM. From the text:
Ketoglutaric acid α-[1-^14C]-sodium salt, alpha-ketoglutaric acid sodium salt, and HPLC purified peptide may be obtained from commercial sources, e.g., Perkin-Elmer (Wellesley Mass.), Sigma-Aldrich, and SynPep Corp. (Dublin Calif.), respectively. Peptides for use in the assay may be fragments of HIFα as described above or as disclosed in International Publication WO 2005/118836, incorporated by reference herein. For example, a HIF peptide for use in the HIF-PH assay is [methoxycoumarin]-DLDLEALAPYIPADDDFQL-amide. HIF-PH, e.g., HIF-PH2 (EGLN1), can be expressed in, e.g., insect Hi5 cells, and partially purified, e.g., through a SP ion exchange chromatography column. Enzyme activity is determined by capturing ^14CO2 using an assay described by Kivirikko and Myllyla (1982, Methods Enzymol. 82:245-304). Assay reactions contain 50 mM HEPES (pH 7.4), 100 μM α-ketoglutaric acid sodium salt, 0.30 μCi/mL ketoglutaric acid α-[1-^14C]-sodium salt, 40 μM FeSO4, 1 mM ascorbate, 1541.8 units/mL Catalase, with or without 50 μM peptide substrate and various concentrations of compound of the invention. Reactions are initiated by addition of HIF-PH enzyme.
The peptide-dependent percent turnover is calculated by subtracting percent turnover in the absence of peptide from percent turnover in the presence of substrate peptide. Percent inhibition and IC50 are calculated using peptide-dependent percent turnover at given inhibitor concentrations. Calculation of IC50 values for each inhibitor is conducted using GraFit software (Erithacus Software Ltd., Surrey UK).
Representative compounds of the invention were analyzed using the HIF-PH assay described above. Table I below presents enzyme inhibition data for exemplary compounds against HIF-PH2, a representative HIF prolyl hydroxylase enzyme. By inhibiting HIF prolyl hydroxylase enzymes, compounds of the invention stabilize HIFα, which then combines with HIFβ to form an active transcription factor that increases expression of various genes involved in numerous beneficial cellular processes.
`Cc1nsc2c(O)c(C(=O)NCC(=O)O)nc(-c3cnccn3)c12` [Example 41, [(7-Hydroxy-3-methyl-4-pyrazin-2-yl-isothiazolo[4,5-c]pyridine-6-carbonyl)-amino]-acetic acid]: testing at 22.22 µM gave an inhibition of 98%. For `Cc1nc(C(=O)NCC(=O)O)c(O)c2c(-c3ccccc3)nsc12` [Example 44, [(4-Hydroxy-7-methyl-3-phenyl-isothiazolo[5,4-c]pyridine-5-carbonyl)-amino]-acetic acid], the inhibition (as a rule, the share of the control response that was lost under treatment) at 22.22 µM is 91%. Compound `O=C(O)CNC(=O)c1ncc2snc(-c3ccccc3)c2c1O` [Example 43, [(4-Hydroxy-3-phenyl-isothiazolo[5,4-c]pyridine-5-carbonyl)-amino]-acetic acid] showed an inhibition at 22.22 µM of 97%. Same read-out and setting: under `O=C(O)CNC(=O)c1nc(Cc2ccccc2)c2snc(-c3ccc(Cl)cc3)c2c1O` [Example 22, {[7-Benzyl-3-(4-chloro-phenyl)-4-hydroxy-isothiazolo[5,4-c]pyridine-5-carbonyl]-amino}-acetic acid] stands 97%. The same measure, in the same setting: the same measure for `Cc1nsc2c(-c3cnccn3)nc(C(=O)NCC(=O)O)c(O)c12` [Example 40, [(4-Hydroxy-3-methyl-7-pyrazin-2-yl-isothiazolo[5,4-c]pyridine-5-carbonyl)-amino]-acetic acid]: 70%; for `O=C(O)CNC(=O)c1nc(-c2ccccc2)c2snc(-c3ccccc3)c2c1O` [Example 45, [(4-Hydroxy-3,7-diphenyl-isothiazolo[5,4-c]pyridine-5-carbonyl)-amino]-acetic acid]: 97%.

Still in this experiment, the particulars now being: compound concentration 200 μM.
For `O=C(O)CNC(=O)c1nc(C(F)(F)F)c2snc(-c3ccc(Cl)cc3)c2c1O` [Example 26, {[3-(4-Chloro-phenyl)-4-hydroxy-7-trifluoromethyl-isothiazolo[5,4-c]pyridine-5-carbonyl]-amino}-acetic acid], testing at 200 µM gave an inhibition of 100%. The same measure, in the same setting: the same measure for `CCc1nc(C(=O)NCC(=O)O)c(O)c2c(C)nsc12` [Example 46, [(7-Ethyl-4-hydroxy-3-methyl-isothiazolo[5,4-c]pyridine-5-carbonyl)-amino]-acetic acid]: 99%; for `O=C(O)CNC(=O)c1nc(-c2ccncc2)c2snc(-c3ccccc3)c2c1O` [Example 5, [(4-Hydroxy-3-phenyl-7-pyridin-4-yl-isothiazolo[5,4-c]pyridine-5-carbonyl)-amino]-acetic acid]: 97.1%; for `Cc1nc(C(=O)NCC(=O)O)c(O)c2c(-c3ccc(Cl)cc3)nsc12` [Example 15, {[3-(4-Chloro-phenyl)-4-hydroxy-7-methyl-isothiazolo[5,4-c]pyridine-5-carbonyl]-amino}-acetic acid]: 99.5%. `Cc1nc(C(=O)NCC(=O)O)c(O)c2c(C)nsc12` [Example 28, [(4-Hydroxy-3,7-dimethyl-isothiazolo[5,4-c]pyridine-5-carbonyl)-amino]-acetic acid] returned an inhibition at 200 µM of 100%. On the same count and under the same terms, the same measure for `Cc1nsc2c(O)c(C(=O)NCC(=O)O)nc(C)c12` [Example 29, [(7-Hydroxy-3,4-dimethyl-isothiazolo[4,5-c]pyridine-6-carbonyl)-amino]-acetic acid]: 100%. Turning to `Cc1nsc2c(O)c(C(=O)NCC(=O)O)ncc12` [Example 32, [(7-Hydroxy-3-methyl-isothiazolo[4,5-c]pyridine-6-carbonyl)-amino]-acetic acid], the inhibition at 200 µM was determined as 100%. In the case of `O=C(O)CNC(=O)c1nc(-c2ccccc2)c2snc(-c3ccc(F)cc3)c2c1O` [Example 10, {[3-(4-Fluoro-phenyl)-4-hydroxy-7-phenyl-isothiazolo[5,4-c]pyridine-5-carbonyl]-amino}-acetic acid], the inhibition at 200 µM turned out to be 98.2%.

`O=C(O)CNC(=O)c1ncc2snc(-c3ccccc3F)c2c1O` [Example 33, {[3-(2-Fluoro-phenyl)-4-hydroxy-isothiazolo[5,4-c]pyridine-5-carbonyl]-amino}-acetic acid] showed an inhibition at 200 µM of 100%.

Turning to `O=C(O)CNC(=O)c1nc(Br)c2snc(-c3ccc(F)cc3)c2c1O` [Example 7, {[7-Bromo-3-(4-fluoro-phenyl)-4-hydroxy-isothiazolo[5,4-c]pyridine-5-carbonyl]-amino}-acetic acid], at 200 µM the inhibition was 100%. Compound `COc1cccc(-c2nc(C(=O)NCC(=O)O)c(O)c3c(-c4ccc(Cl)cc4)nsc23)c1` [Example 20, {[3-(4-Chloro-phenyl)-4-hydroxy-7-(3-methoxy-phenyl)-isothiazolo[5,4-c]pyridine-5-carbonyl]-amino}-acetic acid] returned an inhibition at 200 µM of 88.9%.

Source of the values: patent publication US9387200B2, “Isothiazole-pyridine derivatives as modulators of HIF (hypoxia inducible factor) activity” (FibroGen, Inc., priority 2008, dated 2016).
